Laboratory results reported in ChEMBL document CHEMBL2346599, “Rational design and binding mode duality of MDM2-p53 inhibitors” (J Med Chem, 2013).
One block for each molecule: values may come before it. The source made the active and inactive calls. No cut-off for these calls is given here.

Columns and labels:
[1] = target: T1, E3 ubiquitin-protein ligase Mdm2 (Homo sapiens, UniProt Q00987); assay: Inhibition of human recombinant GST-thrombin-MDM2 (1 to 188) expressed in Escherichia coli assessed as reduction of MDM2-p53 interaction incubated for 20 mins followed by p53 addition measured after 60 mins by HTRF assay in presence of 15% serum
T1 sequence (Q00987 whole entry): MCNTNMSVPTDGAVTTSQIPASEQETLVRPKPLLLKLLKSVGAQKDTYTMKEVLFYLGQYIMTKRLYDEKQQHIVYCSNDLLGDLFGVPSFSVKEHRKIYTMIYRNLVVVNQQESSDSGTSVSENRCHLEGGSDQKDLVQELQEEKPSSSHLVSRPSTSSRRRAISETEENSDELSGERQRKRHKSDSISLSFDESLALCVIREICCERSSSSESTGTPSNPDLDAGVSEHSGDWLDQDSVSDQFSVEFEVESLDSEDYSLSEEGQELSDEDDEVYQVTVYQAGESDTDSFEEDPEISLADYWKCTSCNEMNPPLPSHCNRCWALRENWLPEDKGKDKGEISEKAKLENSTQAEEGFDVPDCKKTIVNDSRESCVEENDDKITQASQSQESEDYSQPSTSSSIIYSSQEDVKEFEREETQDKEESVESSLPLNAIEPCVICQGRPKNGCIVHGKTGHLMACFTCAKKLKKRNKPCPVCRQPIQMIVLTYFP

[2] = target: T1, E3 ubiquitin-protein ligase Mdm2; assay: Inhibition of human recombinant GST-thrombin-MDM2 (1 to 188) expressed in Escherichia coli assessed as reduction of MDM2-p53 interaction incubated for 20 mins followed by p53 addition measured after 60 mins by HTRF assay
Protein Mdm4 = target: T2, Protein Mdm4 (Homo sapiens, UniProt O15151); assay: Binding affinity to MDMX (unknown origin) after 20 mins by HTRF assay
T2 sequence (O15151 whole entry): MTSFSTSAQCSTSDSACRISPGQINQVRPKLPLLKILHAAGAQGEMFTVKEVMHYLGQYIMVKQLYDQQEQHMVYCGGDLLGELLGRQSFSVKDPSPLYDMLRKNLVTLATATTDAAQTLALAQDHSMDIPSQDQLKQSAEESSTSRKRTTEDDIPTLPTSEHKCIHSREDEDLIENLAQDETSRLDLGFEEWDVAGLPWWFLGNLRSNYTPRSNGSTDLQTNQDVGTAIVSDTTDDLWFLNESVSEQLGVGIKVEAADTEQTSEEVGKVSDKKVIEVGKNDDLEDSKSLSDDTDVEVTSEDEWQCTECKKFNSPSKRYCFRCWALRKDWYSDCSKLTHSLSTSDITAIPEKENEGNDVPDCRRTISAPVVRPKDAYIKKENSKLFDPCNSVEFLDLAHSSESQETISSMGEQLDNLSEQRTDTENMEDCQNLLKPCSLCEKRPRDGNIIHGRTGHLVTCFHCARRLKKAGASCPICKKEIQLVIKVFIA

Mus musculus = species: Mus musculus; details: SJSA-1, 30 to 100 mg/kg
Description: In vivo inhibition of MDM2 in human SJSA1 cells xenografted in athymic nude mouse assessed as upregulation of p21 mRNA level at 30 to 100 mg/kg, po qd after 7 hrs by qRT-PCR analysis

[3] = AUC in athymic nude mouse at 5 mg/kg, po; assay type: ADME, organism-based; set-up: dose 5 mg/kg, route oral; details: plasma
[4] = Plasma concentration in athymic nude mouse xenografted with human SJSA1 cells at 300 mg/kg, po qd after 7 hrs; assay type: ADME, organism-based, SJSA-1; set-up: dose 300 mg/kg, route oral
[5] = Fraction unbound in rat plasma; assay type: ADME, cell-free
[6] = Drug uptake in tumor of athymic nude mouse xenografted with human SJSA1 cells at 100 mg/kg, po qd after 7 hrs; assay type: ADME, organism-based, Neoplasm, SJSA-1; set-up: dose 100 mg/kg, route oral; details: read-out: Drug uptake
[7] = Half life in athymic nude mouse at 1 mg/kg, iv; assay type: ADME, organism-based; set-up: dose 1 mg/kg, route intravenous; details: in vivo
[8] = Fraction unbound in mouse plasma; assay type: ADME, cell-free
[9] = Drug uptake in tumor of athymic nude mouse xenografted with human SJSA1 cells at 30 mg/kg, po qd after 7 hrs; assay type: ADME, organism-based, Neoplasm, SJSA-1; set-up: dose 30 mg/kg, route oral; details: read-out: Drug uptake
[10] = Volume of distribution at steady state in athymic nude mouse at 1 mg/kg, iv; assay type: ADME, organism-based; set-up: dose 1 mg/kg, route intravenous; details: in vivo, read-out: Vdss
[11] = Oral bioavailability in athymic nude mouse at 5 mg/kg; assay type: ADME, organism-based; details: in vivo
[12] = Clearance in athymic nude mouse at 1 mg/kg, iv; assay type: ADME, organism-based; set-up: dose 1 mg/kg, route intravenous; details: in vivo
[13] = Fraction unbound in human plasma; assay type: ADME, cell-free
[14] = Drug uptake in tumor of athymic nude mouse xenografted with human SJSA1 cells at 300 mg/kg, po qd after 7 hrs; assay type: ADME, organism-based, Neoplasm, SJSA-1; set-up: dose 300 mg/kg, route oral; details: read-out: Drug uptake

SMILES: CN1C(=O)CO[C@@H](c2ccc(Cl)cc2)[C@H]1c1cccc(Cl)c1 (racemic)
IC50 [1]: > 30 µM | IC50 [2]: > 30 µM

SMILES: O=C(O)C[C@H]1C[C@H](c2cccc(Cl)c2)[C@@H](c2ccc(Cl)cc2)N(CC2CC2)C1=O
IC50 (Protein Mdm4): > 30 µM

SMILES: O=C(O)C[C@@H]1O[C@@H](c2cccc(Cl)c2)[C@@H](c2ccc(Cl)cc2)N(CC2CC2)C1=O
inhibition (Mus musculus): inactive | AUC [3]: 4.1 µM·h | concentration at 7 h [4]: 102 µM | fraction unbound [5]: 0.06 | concentration at 7 h [6]: 2.1 µM | half-life [7]: 4.1 h | fraction unbound [8]: 0.059 | concentration at 7 h [9]: 0.3 µM | IC50 (Protein Mdm4): > 30 µM | Vd [10]: 3.9 L/kg | bioavailability [11]: 59% | clearance [12]: 28.3 mL/min/kg | fraction unbound [13]: 0.042 | concentration at 7 h [14]: 22.9 µM

SMILES: COc1ccc([C@H]2CC(=O)C=C(c3ccc(Cl)cc3)[C@@H]2c2ccc(Cl)cc2)cc1OC (racemic)
IC50 [2]: > 30 µM

SMILES: CC(C)(C)OC(=O)N1CC(=O)N[C@H](c2ccc(Br)cc2)[C@@H]1c1ccc(Br)cc1 (racemic)
IC50 [2]: > 30 µM

Other lines, results leading:

IC50 [2]: > 30 µM
SMILES: CN1C[C@H](Cc2ccccc2)O[C@@H](c2ccc(Br)cc2)[C@H]1c1ccc(Br)cc1 (racemic)

IC50 (Protein Mdm4): > 30 µM
SMILES: CN1C(=O)[C@H](Cc2ccccc2)O[C@@H](c2ccc(Br)cc2)[C@H]1c1ccc(Br)cc1

IC50 (Protein Mdm4): > 30 µM
SMILES: CCC[C@H](C(=O)O)N1C(=O)[C@H](Cc2ccc(F)cc2)O[C@@H](c2ccc(Cl)cc2)[C@H]1c1ccc(Cl)cc1
